Experimental data: patent US11413354B2, “N-acetylgalactosamino dendron-clearing agent for dota-pretargeted radioimmunotherapy” (priority 2018, dated 2022)

Columns and labels:
[1] = test system: GPA33-expressing SW1222 xenografts; assay: Absorbed dose estimates for PRIT+[^177Lu]LuDOTA-Bn including dendron-CA CCA-16-DOTA-Y^3+; assay type: in vivo, nude mice; conditions: with dendron-CA; bone marrow as dose-limiting organ
Experimental: Absorbed dose estimates for PRIT+[^177Lu]LuDOTA-Bn including dendron-CA CCA-16-DOTA-Y^3+: In order to calculate absorbed doses for PRIT+[[…]]LuDOTA-Bn including dendron-CA (the clearing agent of the present technology), groups of nude mice bearing GPA33-expressing SW1222 xenografts (n=5/group) were injected i.v. with the BsAb huA33-C825 (250 μg; 1.19 nmol) 28 h prior and i.v. with dendron-clearing agent CCA-16-DOTA-Y^3+ (25 μg; 2.76 nmol) 4 h prior to administration of [^177Lu]LuDOTA-Bn (20 pmol, 3.7 MBq [100 μCi]). These mice were sacrificed at 1, 4, 24, or 48 h p.i. of [^177Lu]LuDOTA-Bn for biodistribution assay. For each tissue, the non-decay-corrected time-activity concentration data were fitted using Excel to a 1-component, 2-component, or more complex exponential function as appropriate, and analytically integrated to yield the cumulated activity concentration per unit administered activity (MBq-h/g per MBq). The ^177Lu equilibrium dose constant for non-penetrating radiations (8.49 g-cGy/MBq-h) was used to estimate the tumor-to-tumor and select organ-to-organ self-absorbed doses, assuming complete local absorption of the ^177Lu beta rays only, and ignoring the gamma ray and non-self dose contributions.

[2] = test system: SW1222 xenografts (anti-GPA33 PRIT); assay: Optimized PRIT+[^177Lu]LuDOTA-Bn including dextran-CA (Cheal et al. 2016): dosimetry and therapy; assay type: in vivo, mice; conditions: with dextran-CA; bone marrow as dose-limiting organ
Source text: See Cheal et al., Eur J Nucl Med Mol Imaging 43: 925 (2016). […] Cheal et al., Eur J Nucl Med Mol Imaging 43: 925 (2016).
Based on human normal-tissue radiation dose tolerance estimates derived from clinical observations (Marks, et al., Int J Radiat Oncol Biol Phys. 76:S10-9 (2010)) the maximum tolerated doses (MTDs) are 250 cGy for bone marrow, 1,500 cGy for lung, 3,000 cGy for liver, and 2,000 cGy for kidney. […] At this activity, the estimated absorbed dose delivered to tumor would be 18,292 cGy (183 Gy), with 250 cGy to blood (marrow) and 1,473 cGy to kidney.

[3] = test system: SW1222 xenografts (anti-GPA33 PRIT); conditions: with dextran-CA, cited from earlier work
[4] = test system: SW1222 tumor (same animal model); conditions: 24 h p.i.; 1.85-8.8 MBq, 10-50 pmol; cited from earlier work

^177Lu-aminobenzylDOTA [[^177Lu]LuDOTA-Bn]
maximum tolerated pretargeted activity [1]: 21 MBq | maximum tolerated pretargeted activity [2]: 278 MBq | CR frequency ([3]; 111.0 MBq delivered in a fractionated dose strategy): 100% | survival beyond 140 days ([3]; 111.0 MBq fractionated): two of nine mice | treatment-related toxicity ([3]; effective treatment): no major treatment-related toxicities observed | mean tumor uptake [4]: ~8 % ID/g
